In patent US20100048534A1, “CRYSTALLINE LESTAURTINIB HYDRATES AND CRYSTALLINE LESTAURTINIB HEMIHYDRATE HEMIACETONITRILEATE AND CRYSTALLINE LESTAURTINIB HEMIHYDRATE HEMITETRAHYDROFURANATE” (priority 2005, published 2010):

Assay: Solid-state stability and moisture sorption versus relative humidity (dynamic moisture sorption gravimetry, DMSG)
Format: physicochemical

SMILES: C[C@]12O[C@H](C[C@]1(O)CO)n1c3ccccc3c3c4c(c5c6ccccc6n2c5c31)CNC4=O [Crystalline lestaurtinib anhydrate, lestaurtinib anhydrate]
- water content of solid-state phase by DMSG (25° C., between 0% and 5% RH, w/w): less than 0.5%
- behaviour above 5% RH (ambient temperature, above 5% RH): absorbs moisture above 5% RH to form crystalline lestaurtinib monohydrate
